Data set [1] can be described thus: One-photon absorption spectra of dyes (λmax abs, logε). In kind it is physicochemical. An excerpt: (§1) Similar methods were used to prepare additional dyes.
A short description of data set [2]: Fluorescence emission spectra and fluorescence quantum yield (FQY) of dyes. Format: physicochemical.
Text: as §1

A short description of data set [3]: Voltage sensitivity: fluorescence change for a 100 millivolt step in membrane potential.
A short description of data set [4]: Photobleaching rate under white light from a xenon lamp. In kind it is physicochemical. Particulars: single exponential decay fit of absorbance. Summed up:
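Photostability was scored as a photobleaching rate, expressed relative to the unsubstituted parent dye. Dyes were irradiated with white light from a xenon lamp while absorbance was monitored. The rate was derived by fitting a single exponential decay to the absorbance over time.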

Consider `CCCCN(CCCC)c1ccc2cc(/C=C(\F)c3cc[n+](CCC[N+](CC)(CC)CC)cc3)ccc2c1` [PY3006], for which the logε is listed as 4.5 in data set [1] (Ethanol), 4.4 in data set [1] (Lipid vesicles) and 4.2 in data set [1] (PBS buffer). Further, the λmax abs in data set [1] (Ethanol) is on record as 539 nm; in data set [1] (Lipid vesicles), 488 nm; in data set [1] (PBS buffer), 493 nm. In addition, the FQY in data set [2] (Ethanol) is listed as 0.001; in data set [2] (Lipid vesicles), 0.16; in data set [2] (PBS buffer), “— (FQY < 0.001)”. Further, the λmax em amounted to 720 nm in data set [2] (Ethanol) and 636 nm in data set [2] (Lipid vesicles). Moreover, in data set [3] (Ex/Em 578/>695 nm), the “Voltage sensitivity ΔF/F per 100 mV” value is listed as 12% 578/ >695. For the same compound, the “Photobleaching rate (Relative to unsubstituted dye)” value in data set [4] is on record as 0.63.
In the case of `CCCCN(CCCC)c1ccc2cc(/C=C/c3cc[n+](CCC[N+](CC)(CC)CC)cc3F)ccc2c1` [PY3128], the logε in data set [1] (Ethanol) was found to be 4.4; in data set [1] (Lipid vesicles) it was 4.3; in data set [1] (PBS buffer), 4.2. Besides, the λmax abs in data set [1] (Ethanol) worked out at 545 nm; in data set [1] (Lipid vesicles) it was 495 nm; in data set [1] (PBS buffer) it was 506 nm. In addition, the FQY is listed as 0.002 in data set [2] (Ethanol), 0.26 in data set [2] (Lipid vesicles) and “— (FQY < 0.001)” in data set [2] (PBS buffer). Moreover, the λmax em in data set [2] (Ethanol) is reported as 720 nm; in data set [2] (Lipid vesicles) it was 632 nm. In addition, in data set [3] (Ex/Em 590/>695 nm), the “Voltage sensitivity ΔF/F per 100 mV” value came out at 6% 590/ >695. Moreover, the “Photobleaching rate (Relative to unsubstituted dye)” value in data set [4] is 0.63.
Turning to `CCCCN(CCCC)c1ccc2cc(/C=C/c3cc[n+](CCC[N+](CC)(CC)CC)cc3)ccc2c1F` [PY3174], the logε was determined as 4.4 in data set [1] (Ethanol), 4.3 in data set [1] (Lipid vesicles) and 4.2 in data set [1] (PBS buffer). Besides, the λmax abs in data set [1] (Ethanol) was 481 nm; in data set [1] (Lipid vesicles), 444 nm; in data set [1] (PBS buffer), 401 nm. Moreover, the FQY is 0.007 in data set [2] (Ethanol), 0.25 in data set [2] (Lipid vesicles) and 0.002 in data set [2] (PBS buffer). Moreover, the figures for the λmax em in data set [2] (Ethanol), in data set [2] (Lipid vesicles) and in data set [2] (PBS buffer) were 704 nm, 610 nm and 666 nm, respectively. Also, in data set [3] (Ex/Em 545/>695 nm), the “Voltage sensitivity ΔF/F per 100 mV” value stood at 6% 545/ >695. Besides, in data set [4], the “Photobleaching rate (Relative to unsubstituted dye)” value amounted to 0.83.
Turning to `CCCCN(CCCC)c1ccc2cc(/C=C/c3cc[n+](CCC[N+](CC)(CC)CC)cc3F)ccc2c1F` [PY3179], the results for the logε in data set [1] (Ethanol), in data set [1] (Lipid vesicles) and in data set [1] (PBS buffer) were 4.3, 4.3 and 4.1, respectively. Also, the λmax abs stood at 509 nm in data set [1] (Ethanol), 465 nm in data set [1] (Lipid vesicles) and 414 nm in data set [1] (PBS buffer). Also, the FQY in data set [2] (Ethanol) was 0.003; in data set [2] (Lipid vesicles), 0.22; in data set [2] (PBS buffer), “— (FQY < 0.001)”. For the same compound, the λmax em in data set [2] (Ethanol) is listed as 720 nm; in data set [2] (Lipid vesicles) it was 632 nm. Further, in data set [3] (Ex/Em 572/>695 nm), the “Voltage sensitivity ΔF/F per 100 mV” value was 18% 572/ >695. In addition, the “Photobleaching rate (Relative to unsubstituted dye)” value in data set [4] is given as 0.91.
With `CCCCN(CCCC)c1ccc2cc(/C=C/c3c(F)c[n+](CCC[N+](CC)(CC)CC)cc3F)ccc2c1` [PY3184], the logε is reported as 4.6 in data set [1] (Ethanol), 4.3 in data set [1] (Lipid vesicles) and 4.2 in data set [1] (PBS buffer). In addition, the λmax abs in data set [1] (Ethanol) came to 569 nm; in data set [1] (Lipid vesicles), 511 nm; in data set [1] (PBS buffer), 530 nm. Besides, the FQY in data set [2] (Ethanol) is on record as 0.004; in data set [2] (Lipid vesicles), 0.18; in data set [2] (PBS buffer), “— (FQY < 0.001)”. In addition, the λmax em is 658 nm in data set [2] (Ethanol) and 646 nm in data set [2] (Lipid vesicles). Besides, the “Voltage sensitivity ΔF/F per 100 mV” value in data set [3] (Ex/Em 610/>695 nm) worked out at 11% 610/ >695. For the same compound, the “Photobleaching rate (Relative to unsubstituted dye)” value in data set [4] was determined as 1.56.
In the case of `CCCCN(CCCC)c1ccc2cc(/C=C/c3c(F)c[n+](CCC[N+](CC)(CC)CC)c4ccccc34)ccc2c1` [PY3304], the logε in data set [1] (Ethanol) is 4.4; in data set [1] (Lipid vesicles), 4.2; in data set [1] (PBS buffer) it was 4.0. Also, the λmax abs stood at 617 nm in data set [1] (Ethanol), 547 nm in data set [1] (Lipid vesicles) and 565 nm in data set [1] (PBS buffer). Further, the FQY in data set [2] (Ethanol) was 0.001; in data set [2] (Lipid vesicles), 0.03; in data set [2] (PBS buffer), “— (FQY < 0.001)”. Also, the λmax em in data set [2] (Ethanol) was 825 nm; in data set [2] (Lipid vesicles), 686 nm. In addition, the “Voltage sensitivity ΔF/F per 100 mV” value in data set [3] (Ex/Em 645/>745 nm) was 12% 645/ >745. The “Photobleaching rate (Relative to unsubstituted dye)” value in data set [4] was 5.26.
As for `CCCCN(CCCC)c1ccc2cc(/C=C(\F)c3cc[n+](CCC[N+](CC)(CC)CC)cc3)ccc2c1F` [PY4038], the logε is 4.4 in data set [1] (Ethanol), 4.3 in data set [1] (Lipid vesicles) and 4.0 in data set [1] (PBS buffer). Besides, the λmax abs in data set [1] (Ethanol) stood at 497 nm; in data set [1] (Lipid vesicles) it was 464 nm; in data set [1] (PBS buffer), 409 nm. For the same compound, the FQY is given as 0.001 in data set [2] (Ethanol), 0.26 in data set [2] (Lipid vesicles) and “— (FQY < 0.001)” in data set [2] (PBS buffer). Moreover, the values for the λmax em in data set [2] (Ethanol) and in data set [2] (Lipid vesicles) were 760 nm and 643 nm, respectively. Also, in data set [3] (Ex/Em 578/>695 nm), the “Voltage sensitivity ΔF/F per 100 mV” value was determined as 7% 578/ >695. Moreover, in data set [4], the “Photobleaching rate (Relative to unsubstituted dye)” value is 0.62.
Turning to `CCCCN(CCCC)c1ccc2cc(/C=C/c3cc[n+](CCC[N+](CC)(CC)CC)cc3)ccc2c1C(F)(F)F` [PY4093], the logε in data set [1] (Ethanol) is given as 4.6; in data set [1] (Lipid vesicles) it was 4.5; in data set [1] (PBS buffer) it was 4.3. Further, the λmax abs in data set [1] (Ethanol) amounted to 449 nm; in data set [1] (Lipid vesicles), 418 nm; in data set [1] (PBS buffer), 430 nm. Besides, the FQY in data set [2] (Ethanol) is on record as 0.046; in data set [2] (Lipid vesicles), 0.35; in data set [2] (PBS buffer), 0.005. Also, the λmax em in data set [2] (Ethanol) was determined as 687 nm; in data set [2] (Lipid vesicles), 597 nm; in data set [2] (PBS buffer) it was 715 nm. Further, the “Voltage sensitivity ΔF/F per 100 mV” value in data set [3] (Ex/Em 530/>645 nm) was 8% 530/ >645. Moreover, in data set [4], the “Photobleaching rate (Relative to unsubstituted dye)” value came to 0.95.
For `CCCCN(CCCC)c1ccc2cc(/C=C(\F)c3cc[n+](CCC[N+](CC)(CC)CC)cc3)ccc2c1C(F)(F)F` [PY4125], the logε came out at 4.4 in data set [1] (Ethanol), 4.4 in data set [1] (Lipid vesicles) and 4.2 in data set [1] (PBS buffer). The λmax abs in data set [1] (Ethanol) is 453 nm; in data set [1] (Lipid vesicles) it was 422 nm; in data set [1] (PBS buffer), 395 nm. Also, the FQY in data set [2] (Ethanol) is 0.006; in data set [2] (Lipid vesicles) it was 0.30; in data set [2] (PBS buffer), 0.004. In addition, the λmax em in data set [2] (Ethanol) is 694 nm; in data set [2] (Lipid vesicles), 590 nm; in data set [2] (PBS buffer), 624 nm. In addition, the “Voltage sensitivity ΔF/F per 100 mV” value in data set [3] (Ex/Em 510/>695 nm) stood at 5% 510/ >695. Moreover, the “Photobleaching rate (Relative to unsubstituted dye)” value in data set [4] is given as 1.35.
As for `CCCCN(CCCC)c1ccc2cc(/C=C(\F)c3cc[n+](CCC[N+](CC)(CC)CC)cc3F)ccc2c1F` [PY4158], the logε in data set [1] (Ethanol) is 4.3; in data set [1] (Lipid vesicles), 4.2; in data set [1] (PBS buffer), 4.0. Moreover, the λmax abs in data set [1] (Ethanol) amounted to 510 nm; in data set [1] (Lipid vesicles), 470 nm; in data set [1] (PBS buffer), 408 nm. In addition, the FQY is given as 0.003 in data set [2] (Ethanol), 0.23 in data set [2] (Lipid vesicles) and “— (FQY < 0.001)” in data set [2] (PBS buffer). Also, the λmax em in data set [2] (Ethanol) is listed as 845 nm; in data set [2] (Lipid vesicles) it was 651 nm. For the same compound, the “Voltage sensitivity ΔF/F per 100 mV” value in data set [3] (Ex/Em 580/>695 nm) stood at 7% 580/ >695. Further, the “Photobleaching rate (Relative to unsubstituted dye)” value in data set [4] was found to be 0.89.
`CCCCN(CCCC)c1ccc2cc(/C=C(\F)c3cc[n+](CCC[N+](CC)(CC)CC)cc3F)ccc2c1` [PY4160]: the logε is on record as 4.6 in data set [1] (Ethanol), 4.5 in data set [1] (Lipid vesicles) and 4.4 in data set [1] (PBS buffer). Further, the values for the λmax abs in data set [1] (Ethanol), in data set [1] (Lipid vesicles) and in data set [1] (PBS buffer) were 558 nm, 500 nm and 513 nm, respectively. For the same compound, the FQY in data set [2] (Ethanol) is on record as 0.003; in data set [2] (Lipid vesicles), 0.21; in data set [2] (PBS buffer), “— (FQY < 0.001)”. Besides, the λmax em is listed as 710 nm in data set [2] (Ethanol) and 660 nm in data set [2] (Lipid vesicles). The “Voltage sensitivity ΔF/F per 100 mV” value in data set [3] (Ex/Em 602/>695 nm) amounted to 10% 602/ >695. Besides, the “Photobleaching rate (Relative to unsubstituted dye)” value in data set [4] was determined as 0.66.
As to `CCCCN(CCCC)c1ccc2cc(/C=C/c3c(F)c[n+](CCC[N+](CC)(CC)CC)c4ccccc34)ccc2c1` [PY4221], the logε was determined as 4.4 in data set [1] (Ethanol), 4.2 in data set [1] (Lipid vesicles) and 4.1 in data set [1] (PBS buffer). Moreover, the λmax abs in data set [1] (Ethanol) worked out at 627 nm; in data set [1] (Lipid vesicles) it was 553 nm; in data set [1] (PBS buffer), 537 nm. Besides, the values for the FQY result in data set [2] (Ethanol), in data set [2] (Lipid vesicles) and in data set [2] (PBS buffer) were “— (FQY < 0.001)”, 0.07 and “— (FQY < 0.001)”, respectively. In data set [2] (Lipid vesicles), this compound returned a λmax em of 743 nm. The “Voltage sensitivity ΔF/F per 100 mV” value in data set [3] (Ex/Em 670/>780 nm) came out at 6% 670/ >780.

These data come from US8993258B2, “Fluorinated voltage sensitive dyes, preparation thereof, and optical methods of use” (The University of Connecticut, priority 2012, dated 2015).
